Measured values from patent US6780867B2, “Thienopyrimidines” (Merck Patent GmbH, priority 2000, dated 2004).
Structures can show the parent of a compound that is named as a salt.

| Compound | melting point |
| --- | --- |
| COc1ccc(CNc2nc(COCC(=O)O)nc3sc4c(c23)CCCC4)cc1Cl (as salt: salt) [Example 6, [4-(3-chloro-4-methoxybenzylamino)-5,6,7,8-tetrahydrobenzo[4,5]thieno-[2,3-d]pyrimidin-2-ylmethoxy]acetic acid] | 136 to 137 °C |
| CCOC(=O)CSCc1nc(NCc2ccc(OC)c(Cl)c2)c2c3c(sc2n1)CCCC3 [Example 5, ethyl [4-(3-chloro-4-methoxybenzylamino)-5,6,7,8-tetrahydrobenzo[4,5]thieno-[2,3-d]pyrimidin-2-ylmethylsulfanyl]acetate] | 158 to 160 °C |
